Measured values from patent US11051515B2, “3-acyl-benzamides and their use as herbicides” (Bayer Aktiengesellschaft, priority 2017, dated 2021).

How the values were obtained:
POLCO [1] = test: Pre-emergence action against POLCO; format: in vivo, Polygonum convolvulus; details: Fallopia convolvulus, 504 h; Dosage 320 g/ha, pre-emergence
Procedure, shortened: (§1)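 Seeds sown in sandy loam in wood-fiber pots and covered with soil. Greenhouse growth; visual damage scored after 3 weeks versus untreated controls (100% = dead, 0% = like control).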

SETVI [2] = test: Pre-emergence action against SETVI; format: in vivo, Setaria viridis; details: Setaria viridis, 504 h; pre-emergence, dosage 320 g/ha, scored visually after 3 weeks vs untreated controls; read-out: SETVI (Table B8, pre-emergence herbicidal activity)
Procedure, shortened: as §1

AVEFA [3] = test: Pre-emergence action against AVEFA; format: in vivo, Avena fatua; details: Avena fatua, 504 h, dosage 320 g/ha, scored visually after 3 weeks vs untreated controls, read-out: Pre-emergence action against AVEFA (herbicidal activity)
Procedure, shortened: as §1

VIOTR [4] = test: Post-emergence action against VIOTR; format: in vivo, Viola tricolor; details: Viola tricolor, 504 h; post-emergence, dosage 80 g/ha
Procedure, shortened: (§2)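 Post-emergence foliar spray on greenhouse plants at the one-leaf stage, using wettable-powder or emulsion-concentrate formulations in water (600 to […], plus 0.2% wetting agent). Damage scored by eye roughly 3 weeks later against untreated plants: 0% = like control, 100% = dead.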

MATIN [5] = test: Post-emergence action against MATIN; format: in vivo, Matricaria inodora; details: Tripleurospermum inodorum, 504 h; post-emergence, dosage 80 g/ha, visual assessment about 3 weeks after treatment vs untreated controls; read-out: Post-emergence action against MATIN (herbicidal action in percent)
Procedure, shortened: as §2

ABUTH [6] = test: Post-emergence action against ABUTH; format: in vivo, Abutilon theophrasti; details: Abutilon theophrasti, 504 h; post-emergence, dosage 80 g/ha, visual assessment about 3 weeks after treatment vs untreated controls; read-out: Post-emergence action against ABUTH (herbicidal action in percent)
Procedure, shortened: as §2

AMARE [7] = test: Post-emergence action against AMARE; format: in vivo, Amaranthus retroflexus; details: Amaranthus retroflexus, 504 h; post-emergence, dosage 80 g/ha, visual assessment about 3 weeks after treatment vs untreated controls; read-out: Post-emergence action against AMARE (herbicidal action in percent)
Procedure, shortened: as §2

VERPE [8] = test: Pre-emergence action against VERPE; format: in vivo, Veronica persica; details: Veronica persica, 504 h; Dosage 320 g/ha, pre-emergence
Procedure, shortened: as §1

ECHCG = test: Post-emergence action against ECHCG; format: in vivo, Echinochloa crus-galli; details: Echinochloa crus-galli, 504 h; post-emergence, dosage 80 g/ha, visual assessment about 3 weeks after treatment vs untreated controls; read-out: Post-emergence action against ECHCG (herbicidal action in percent)
Procedure, shortened: as §2

PHBPU = test: Pre-emergence action against PHBPU; format: in vivo, Pharbitis purpurea; details: Ipomoea purpurea, 504 h; Dosage 320 g/ha, pre-emergence
Procedure, shortened: as §1

MATIN [9] = test: Pre-emergence action against MATIN; format: in vivo, Matricaria inodora; details: Tripleurospermum inodorum, 504 h; Dosage 320 g/ha, pre-emergence
Procedure, shortened: as §1

VIOTR [10] = test: Pre-emergence action against VIOTR; format: in vivo, Viola tricolor; details: Viola tricolor, 504 h; Dosage 320 g/ha, pre-emergence
Procedure, shortened: as §1

POLCO [11] = test: Post-emergence action against POLCO; format: in vivo, Polygonum convolvulus; details: Fallopia convolvulus, 504 h; post-emergence, dosage 80 g/ha
Procedure, shortened: as §2

ABUTH [12] = test: Pre-emergence action against ABUTH; format: in vivo, Abutilon theophrasti; details: Abutilon theophrasti, 504 h; pre-emergence, dosage 320 g/ha, scored visually after 3 weeks vs untreated controls; read-out: Pre-emergence action against ABUTH (herbicidal activity)
Procedure, shortened: as §1

AVEFA [13] = test: Post-emergence action against AVEFA; format: in vivo, Avena fatua; details: Avena fatua, 504 h; post-emergence, dosage 80 g/ha, visual assessment about 3 weeks after treatment vs untreated controls; read-out: Post-emergence action against AVEFA (herbicidal action in percent)
Procedure, shortened: as §2

VERPE [14] = test: Post-emergence action against VERPE; format: in vivo, Veronica persica; details: Veronica persica, 504 h, dosage 80 g/ha
Procedure, shortened: as §2

AMARE [15] = test: Pre-emergence action against AMARE; format: in vivo, Amaranthus retroflexus; details: Amaranthus retroflexus, 504 h; pre-emergence, dosage 320 g/ha, scored visually after 3 weeks vs untreated controls; read-out: Pre-emergence action against AMARE (herbicidal activity)
Procedure, shortened: as §1

SETVI [16] = test: Post-emergence action against SETVI; format: in vivo, Setaria viridis; details: Setaria viridis, 504 h; post-emergence, dosage 80 g/ha, visual assessment about 3 weeks after treatment vs untreated controls; read-out: Post-emergence action against SETVI (herbicidal action in percent)
Procedure, shortened: as §2

CYPES = test: Post-emergence action against CYPES; format: in vivo, Cyperus esculentus; details: Cyperus esculentus, 504 h; post-emergence, dosage 80 g/ha, visual assessment about 3 weeks after treatment vs untreated controls; read-out: Post-emergence action against CYPES (herbicidal action in percent)
Procedure, shortened: as §2

Row | Compound | pest or weed control at 320 g/ha (POLCO [1]) [%] | pest or weed control at 320 g/ha (SETVI [2]) [%] | pest or weed control at 320 g/ha (AVEFA [3]) [%] | pest or weed control at 80 g/ha (VIOTR [4]) [%] | pest or weed control at 80 g/ha (MATIN [5]) [%] | pest or weed control at 80 g/ha (ABUTH [6]) [%] | pest or weed control at 80 g/ha (AMARE [7]) [%] | pest or weed control at 320 g/ha (VERPE [8]) [%] | pest or weed control at 80 g/ha (ECHCG) [%] | pest or weed control at 320 g/ha (PHBPU) [%] | pest or weed control at 320 g/ha (MATIN [9]) [%] | pest or weed control at 320 g/ha (VIOTR [10]) [%] | pest or weed control at 80 g/ha (POLCO [11]) [%] | pest or weed control at 320 g/ha (ABUTH [12]) [%] | pest or weed control at 80 g/ha (AVEFA [13]) [%] | pest or weed control at 80 g/ha (VERPE [14]) [%] | pest or weed control at 320 g/ha (AMARE [15]) [%] | pest or weed control at 80 g/ha (SETVI [16]) [%] | pest or weed control at 80 g/ha (CYPES) [%]
1 | Cn1nnnc1NC(=O)c1ccc(C(F)(F)F)c(C(=O)C2CC2)c1Cl [1-141] | 80 | 100 | 100 | 100 | 90 | 100 | 100 | 100 | 100 | 100 | 100 | 100 | 100 | 100 | 100 | 100 | 100 | 100 | 90
2 | Cn1nnnc1NC(=O)c1ccc(C(F)F)c(C(=O)C2CC2)c1Cl [1-168] | 90 | 100 | 100 | 100 | 100 | 100 | 100 | 100 | 100 | 100 | 100 | 100 | 100 | 100 | 100 | 100 | 100 | 100 | 100
3 | CSc1c(C(=O)Nc2nnnn2C)ccc(C(F)(F)F)c1C(=O)C1CC1 [1-60] | 100 | 100 | 100 | 90 | 100 | 90 | 100 | 100 | 100 | 100 | 100 | 100 | 100 | 100 | 100 | 100 | 100 | 100 | 90
4 | CSc1c(C(=O)Nc2nnnn2C)ccc(C(F)F)c1C(=O)C1CC1 [1-67] | 100 | 100 | 80 | 100 | 100 | 100 | 100 | 100 | 100 | 100 | 100 | 100 | 100 | 100 | 100 | 100 | 100 | 100 | 90
5 | CC(=O)c1c(C(F)(F)F)ccc(C(=O)Nc2nnnn2C)c1Cl [1-137, 3-acetyl-2-chloro-N-(1-methyl-1H-tetrazol-5-yl)-4-(trifluoromethyl)benzamide] | 100 | 100 | 100 | 100 | 90 | 90 | 90 | 100 | 90 | 90 | 100 | 100 | 100 | 100 | 100 | 90 | 100 | 100 | 90
6 | CCn1nnnc1NC(=O)c1ccc(C(F)(F)F)c(C(=O)C2CC2)c1C [2-18, 3-(cyclopropylcarbonyl)-N-(1-ethyl-1H-tetrazol-5-yl)-2-methyl-4-(trifluoromethyl)benzamide] | 90 | 100 | 100 | 100 | 100 | 100 | 100 | 100 | 100 | 90 | 100 | 100 | 100 | 100 | 100 | 80 | 100 | 100 | 90
7 | CC(=O)c1c(C(F)F)ccc(C(=O)Nc2nnnn2C)c1Cl [1-164] | 100 | 100 | 100 | 100 | 100 | 100 | 100 | 100 | 100 | 100 | 100 | 100 | 90 | 100 | 80 | 100 | 100 | 90 | 90
8 | Cn1nnnc1NC(=O)c1ccc(C(F)(F)F)c(C(=O)C2CC2)c1C1CC1 [1-233] | 80 | 100 | 100 | 90 | 90 | 100 | 90 | 100 | 100 | 100 | 100 | 100 | 90 | 100 | 90 | 100 | 100 | 90 | 
9 | CC(=O)c1c(I)ccc(C(=O)Nc2nnnn2C)c1Cl [1-192] | 80 | 100 | 100 | 100 | 100 | 100 | 100 |  | 100 | 100 | 100 | 100 | 100 | 100 | 80 |  | 100 | 100 | 80
